ChEMBL document CHEMBL3797178, “Synthesis, antimycobacterial and antibacterial activity of 1-(6-amino-3,5-difluoropyridin-2-yl)fluoroquinolone derivatives containing an oxime functional moiety” (2016)
Values after ≈ are worked out from the molar mass of the structure shown.

How the values were obtained:
Type in all cases: functional
[1] = tested on: Staphylococcus epidermidis; assay: Antibacterial activity against methicillin-sensitive Staphylococcus epidermidis 14-6 after 18 to 24 hrs by CLSI M100-S11 method
Klebsiella pneumoniae [2] = assay: Antibacterial activity against Klebsiella pneumoniae 14-2 after 18 to 24 hrs by CLSI M100-S11 method
Streptococcus pneumoniae = assay: Antibacterial activity against Streptococcus pneumoniae ATCC 19615 after 18 to 24 hrs by CLSI M100-S11 method
Klebsiella pneumoniae [3] = assay: Antibacterial activity against extended-spectrum beta-lactamase-producing Klebsiella pneumoniae 14-17 after 18 to 24 hrs by CLSI M100-S11 method
Pseudomonas aeruginosa [4] = assay: Antibacterial activity against Pseudomonas aeruginosa 14-19 after 18 to 24 hrs by CLSI M100-S11 method
Pseudomonas aeruginosa [5] = assay: Antibacterial activity against Pseudomonas aeruginosa 14-15 after 18 to 24 hrs by CLSI M100-S11 method
Escherichia coli [6] = assay: Antibacterial activity against extended-spectrum beta-lactamase-producing Escherichia coli 14-1 after 18 to 24 hrs by CLSI M100-S11 method
Staphylococcus aureus [7] = assay: Antibacterial activity against Staphylococcus aureus CMCC 26003 after 18 to 24 hrs by CLSI M100-S11 method
Staphylococcus aureus [8] = assay: Antibacterial activity against methicillin-resistant Staphylococcus aureus 14-5 after 18 to 24 hrs by CLSI M100-S11 method
Enterococcus faecalis [9] = assay: Antibacterial activity against Enterococcus faecalis 14-1 after 18 to 24 hrs by CLSI M100-S11 method
Pseudomonas aeruginosa [10] = assay: Antibacterial activity against Pseudomonas aeruginosa 14-9 after 18 to 24 hrs by CLSI M100-S11 method
Enterococcus faecium [11] = assay: Antibacterial activity against Enterococcus faecium 14-1 after 18 to 24 hrs by CLSI M100-S11 method
Escherichia coli [12] = assay: Antibacterial activity against Escherichia coli 14-2 after 18 to 24 hrs by CLSI M100-S11 method
Klebsiella pneumoniae [13] = assay: Antibacterial activity against Klebsiella pneumoniae 14-1 after 18 to 24 hrs by CLSI M100-S11 method
[14] = tested on: Staphylococcus epidermidis; assay: Antibacterial activity against methicillin-resistant Staphylococcus epidermidis 14-22 after 18 to 24 hrs by CLSI M100-S11 method
Enterococcus faecalis [15] = assay: Antibacterial activity against Enterococcus faecalis 14-3 after 18 to 24 hrs by CLSI M100-S11 method
[16] = tested on: Mycobacterium tuberculosis; assay: Antimycobacterial activity against Mycobacterium tuberculosis H37Rv ATCC 27294 after 3 days by microplate Alamar Blue assay; conditions: H37Rv ATCC 27294, 72 h
Staphylococcus aureus [17] = assay: Antibacterial activity against methicillin-sensitive Staphylococcus aureus 14-4 after 18 to 24 hrs by CLSI M100-S11 method
Staphylococcus aureus [18] = assay: Antibacterial activity against methicillin-sensitive Staphylococcus aureus 14-2 after 18 to 24 hrs by CLSI M100-S11 method
Escherichia coli [19] = assay: Antibacterial activity against Escherichia coli ATCC 25922 after 18 to 24 hrs by CLSI M100-S11 method
Klebsiella pneumoniae [20] = assay: Antibacterial activity against Klebsiella pneumoniae 14-4 after 18 to 24 hrs by CLSI M100-S11 method
Staphylococcus aureus [21] = assay: Antibacterial activity against methicillin-resistant Staphylococcus aureus 14-4 after 18 to 24 hrs by CLSI M100-S11 method
[22] = tested on: Staphylococcus epidermidis; assay: Antibacterial activity against methicillin-sensitive Staphylococcus epidermidis 14-2 after 18 to 24 hrs by CLSI M100-S11 method
Klebsiella pneumoniae [23] = assay: Antibacterial activity against extended-spectrum beta-lactamase-producing Klebsiella pneumoniae 14-18 after 18 to 24 hrs by CLSI M100-S11 method
Enterococcus faecium [24] = assay: Antibacterial activity against Enterococcus faecium 14-2 after 18 to 24 hrs by CLSI M100-S11 method
Pseudomonas aeruginosa [25] = assay: Antibacterial activity against Pseudomonas aeruginosa 14-14 after 18 to 24 hrs by CLSI M100-S11 method
Pseudomonas aeruginosa [26] = assay: Antibacterial activity against Pseudomonas aeruginosa ATCC 27853 after 18 to 24 hrs by CLSI M100-S11 method
[27] = tested on: Staphylococcus epidermidis; assay: Antibacterial activity against methicillin-sensitive Staphylococcus epidermidis 14-4 after 18 to 24 hrs by CLSI M100-S11 method
Staphylococcus aureus [28] = assay: Antibacterial activity against methicillin-sensitive Staphylococcus aureus 14-3 after 18 to 24 hrs by CLSI M100-S11 method
[29] = tested on: Staphylococcus epidermidis; assay: Antibacterial activity against methicillin-resistant Staphylococcus epidermidis 14-37 after 18 to 24 hrs by CLSI M100-S11 method
Klebsiella pneumoniae [30] = assay: Antibacterial activity against extended-spectrum beta-lactamase-producing Klebsiella pneumoniae 14-19 after 18 to 24 hrs by CLSI M100-S11 method
Escherichia coli [31] = assay: Antibacterial activity against Escherichia coli 14-1 after 18 to 24 hrs by CLSI M100-S11 method
Klebsiella pneumoniae [32] = assay: Antibacterial activity against Klebsiella pneumoniae 14-3 after 18 to 24 hrs by CLSI M100-S11 method
Escherichia coli [33] = assay: Antibacterial activity against extended-spectrum beta-lactamase-producing Escherichia coli 14-2 after 18 to 24 hrs by CLSI M100-S11 method
Pseudomonas aeruginosa [34] = assay: Antibacterial activity against Pseudomonas aeruginosa 14-16 after 18 to 24 hrs by CLSI M100-S11 method
Enterococcus faecalis [35] = assay: Antibacterial activity against Enterococcus faecalis 14-2 after 18 to 24 hrs by CLSI M100-S11 method

Structure (SMILES)	MIC [1] [µg/mL]	MIC (Klebsiella pneumoniae [2]) [µg/mL]	MIC (Streptococcus pneumoniae) [µg/mL]	MIC (Klebsiella pneumoniae [3]) [µg/mL]	MIC (Pseudomonas aeruginosa [4]) [µg/mL]	MIC (Pseudomonas aeruginosa [5]) [µg/mL]	MIC (Escherichia coli [6]) [µg/mL]	MIC (Staphylococcus aureus [7]) [µg/mL]	MIC (Staphylococcus aureus [8]) [µg/mL]	MIC (Enterococcus faecalis [9]) [µg/mL]	MIC (Pseudomonas aeruginosa [10]) [µg/mL]	MIC (Enterococcus faecium [11]) [µg/mL]	MIC (Escherichia coli [12]) [µg/mL]	MIC (Klebsiella pneumoniae [13]) [µg/mL]	MIC [14] [µg/mL]	MIC (Enterococcus faecalis [15]) [µg/mL]	MIC [16] [µg/mL]	MIC (Staphylococcus aureus [17]) [µg/mL]	MIC (Staphylococcus aureus [18]) [µg/mL]	MIC (Escherichia coli [19]) [µg/mL]	other results
CO/N=C1\CCN(c2nc3c(cc2F)c(=O)c(C(=O)O)cn3-c2nc(N)c(F)cc2F)CC1O (configuration not stated)	> 128	> 128	64 (≈ 134 µM)	> 128	128 (≈ 268 µM)	128 (≈ 268 µM)	64 (≈ 134 µM)	2 (≈ 4.18 µM)	128 (≈ 268 µM)	> 128	128 (≈ 268 µM)	> 128	> 128	> 128	> 128	> 128	30.7 (≈ 64.3 µM)	4 (≈ 8.36 µM)	2 (≈ 4.18 µM)	64 (≈ 134 µM)	MIC (Klebsiella pneumoniae [20]): > 128 µg/mL; MIC (Staphylococcus aureus [21]): > 128 µg/mL; MIC [22]: > 128 µg/mL; MIC (Klebsiella pneumoniae [23]): > 128 µg/mL; MIC (Enterococcus faecium [24]): 64 µg/mL (≈ 134 µM); MIC (Pseudomonas aeruginosa [25]): 128 µg/mL (≈ 268 µM); MIC (Pseudomonas aeruginosa [26]): 128 µg/mL (≈ 268 µM); MIC [27]: > 128 µg/mL; MIC (Staphylococcus aureus [28]): 4 µg/mL (≈ 8.36 µM); MIC [29]: > 128 µg/mL; MIC (Klebsiella pneumoniae [30]): > 128 µg/mL; MIC (Escherichia coli [31]): > 128 µg/mL; MIC (Klebsiella pneumoniae [32]): > 128 µg/mL; MIC (Escherichia coli [33]): > 128 µg/mL; MIC (Pseudomonas aeruginosa [34]): 128 µg/mL (≈ 268 µM); MIC (Enterococcus faecalis [35]): > 128 µg/mL
Nc1nc(-n2cc(C(=O)O)c(=O)c3cc(F)c(N4CC/C(=N\OCc5ccccc5)C(N)C4)nc32)c(F)cc1F (configuration not stated)	> 128	> 128	64 (≈ 116 µM)	> 128	128 (≈ 231 µM)	128 (≈ 231 µM)	128 (≈ 231 µM)	8 (≈ 14.5 µM)	> 128	128 (≈ 231 µM)	128 (≈ 231 µM)	> 128	> 128	> 128	> 128	> 128	> 32	8 (≈ 14.5 µM)	8 (≈ 14.5 µM)	64 (≈ 116 µM)	MIC (Klebsiella pneumoniae [20]): > 128 µg/mL; MIC (Staphylococcus aureus [21]): > 128 µg/mL; MIC [22]: > 128 µg/mL; MIC (Klebsiella pneumoniae [23]): > 128 µg/mL; MIC (Enterococcus faecium [24]): 64 µg/mL (≈ 116 µM); MIC (Pseudomonas aeruginosa [25]): 128 µg/mL (≈ 231 µM); MIC (Pseudomonas aeruginosa [26]): 128 µg/mL (≈ 231 µM); MIC [27]: > 128 µg/mL; MIC (Staphylococcus aureus [28]): 4 µg/mL (≈ 7.23 µM); MIC [29]: > 128 µg/mL; MIC (Klebsiella pneumoniae [30]): > 128 µg/mL; MIC (Escherichia coli [31]): > 128 µg/mL; MIC (Klebsiella pneumoniae [32]): > 128 µg/mL; MIC (Escherichia coli [33]): > 128 µg/mL; MIC (Pseudomonas aeruginosa [34]): 128 µg/mL (≈ 231 µM); MIC (Enterococcus faecalis [35]): 128 µg/mL (≈ 231 µM)
Nc1nc(-n2cc(C(=O)O)c(=O)c3cc(F)c(N4CC/C(=N\OCc5ccccc5)C(O)C4)nc32)c(F)cc1F (configuration not stated)	> 128	> 128	32 (≈ 57.7 µM)	> 128	128 (≈ 231 µM)	128 (≈ 231 µM)	128 (≈ 231 µM)	2 (≈ 3.61 µM)	> 128	> 128	128 (≈ 231 µM)	> 128	> 128	> 128	> 128	> 128	> 32	4 (≈ 7.21 µM)	4 (≈ 7.21 µM)	16 (≈ 28.9 µM)	MIC (Klebsiella pneumoniae [20]): > 128 µg/mL; MIC (Staphylococcus aureus [21]): > 128 µg/mL; MIC [22]: > 128 µg/mL; MIC (Klebsiella pneumoniae [23]): > 128 µg/mL; MIC (Enterococcus faecium [24]): 32 µg/mL (≈ 57.7 µM); MIC (Pseudomonas aeruginosa [25]): 128 µg/mL (≈ 231 µM); MIC (Pseudomonas aeruginosa [26]): 128 µg/mL (≈ 231 µM); MIC [27]: > 128 µg/mL; MIC (Staphylococcus aureus [28]): 4 µg/mL (≈ 7.21 µM); MIC [29]: > 128 µg/mL; MIC (Klebsiella pneumoniae [30]): > 128 µg/mL; MIC (Escherichia coli [31]): > 128 µg/mL; MIC (Klebsiella pneumoniae [32]): 64 µg/mL (≈ 115 µM); MIC (Escherichia coli [33]): > 128 µg/mL; MIC (Pseudomonas aeruginosa [34]): 128 µg/mL (≈ 231 µM); MIC (Enterococcus faecalis [35]): > 128 µg/mL
CO/N=C1\CCN(c2nc3c(cc2F)c(=O)c(C(=O)O)cn3-c2nc(N)c(F)cc2F)CC1N (configuration not stated)	> 128	> 128	64 (≈ 134 µM)	> 128	128 (≈ 268 µM)	128 (≈ 268 µM)	> 128	8 (≈ 16.8 µM)	> 128	> 128	128 (≈ 268 µM)	> 128	> 128	> 128	> 128	> 128	> 32	16 (≈ 33.5 µM)	8 (≈ 16.8 µM)	16 (≈ 33.5 µM)	MIC (Klebsiella pneumoniae [20]): > 128 µg/mL; MIC (Staphylococcus aureus [21]): > 128 µg/mL; MIC [22]: > 128 µg/mL; MIC (Klebsiella pneumoniae [23]): > 128 µg/mL; MIC (Enterococcus faecium [24]): 64 µg/mL (≈ 134 µM); MIC (Pseudomonas aeruginosa [25]): 128 µg/mL (≈ 268 µM); MIC (Pseudomonas aeruginosa [26]): 128 µg/mL (≈ 268 µM); MIC [27]: > 128 µg/mL; MIC (Staphylococcus aureus [28]): 8 µg/mL (≈ 16.8 µM); MIC [29]: > 128 µg/mL; MIC (Klebsiella pneumoniae [30]): > 128 µg/mL; MIC (Escherichia coli [31]): > 128 µg/mL; MIC (Klebsiella pneumoniae [32]): > 128 µg/mL; MIC (Escherichia coli [33]): > 128 µg/mL; MIC (Pseudomonas aeruginosa [34]): 128 µg/mL (≈ 268 µM); MIC (Enterococcus faecalis [35]): > 128 µg/mL
O=C(O)c1cn(C2CC2)c2cc(N3CCNCC3)c(F)cc2c1=O [CIPROFLOXACIN]																	0.25 (≈ 0.754 µM)				
NNC(=O)c1ccncc1 [ISONIAZID]																	0.05 (≈ 0.365 µM)				
CO[C@H]1/C=C/O[C@@]2(C)Oc3c(C)c(O)c4c(O)c(c(/C=N/N5CCN(C)CC5)c(O)c4c3C2=O)NC(=O)/C(C)=C\C=C\[C@H](C)[C@H](O)[C@@H](C)[C@@H](O)[C@@H](C)[C@H](OC(C)=O)[C@@H]1C [RIFAMPIN]																	0.05 (≈ 0.0608 µM)				
